Experiments:
[1] = target: T1, KRAS G12C mutant (Homo sapiens, UniProt P01116, G12C); assay: Inhibition of SOS1-mediated nucleotide (GDP-GTP) exchange reaction of KRAS G12C mutant, BODIPY FL GDP fluorescence; type: biochemical; conditions: preincubated 25° C. 4 hours with 25 nM KRAS G12C bound with BODIPY FL GDP; SOS1 100 nM, GppNHp 1 μM, 30 minutes
T1 construct: 50 μM G12C K-Ras4B (1-169) protein and 1 mM BODIPY® FL GDP; His tag (N, cleaved yes); made in house; host or cells: E. coli BL21 (DE3)
Text: (§1) SOS1 protein was expressed in E. coli strain BL21 (DE3) by synthesizing a nucleotide sequence encoding the amino acid sequence represented by GenPept ID NP_005624 as a sequence optimized for E. coli by use of GeneArt Technology (Life Technologies Corp.) such that the protein was N-terminally His-tagged and fused with a TEV protease recognition sequence (ENLYFQG). The expressed His-tagged SOS1 (564-1049) was purified through a Ni column, then cleaved at its tag with N-terminally His-tagged TEV protease, and passed through a Ni column again to recover a flow-through fraction to obtain the protein.
Each compound was studied for its inhibitory effect on the exchange reaction of GDP into GppNHp in BODIPY® FL bound with the KRAS G12C mutant by fluorescence measurement using the G12C K-Ras4B (1-169) protein and the SOS1 protein.
For the preparation of the KRAS G12C mutant bound with BODIPY® FL GDP, first, 50 μM G12C K-Ras4B (1-169) protein and 1 mM BODIPY® FL GDP (Invitrogen Corp., G22360) were incubated for 1 hour in a buffer solution (20 mM Tris-HCl (pH 7.5), 50 mM NaCl, and 1 mM DTT) in ice in the presence of 2.5 mM EDTA. Then, MgCl2 was added thereto at a final concentration of 10 mM, then the mixture was incubated at room temperature for 30 minutes, and then, the protein was passed through a NAP-5 column for removal of free nucleotides and used for compound evaluation.
For the measurement of the inhibitory activity of compounds against nucleotide exchange reaction, first, the compound of the present invention was serially diluted with DMSO. Subsequently, the serially diluted solution of the compound of the present invention in DMSO (final concentration of DMSO: 5%) and the KRAS G12C mutant (25 nM) bound with BODIPY® FL GDP were added into a reaction buffer solution (20 mM Tris-HCl (pH 7.5), 100 mM NaCl, 1 mM MgCl2, 2 mM DTT, and 0.1% Tween 20), and the mixture was preincubated at 25° C. for 4 hours. Then, Son of Sevenless Homolog 1 (SOS1, amino acid region: 564-1049) and GppNHp (GMPPNP, Jena Bioscience GmbH, NU-401-50) were added thereto at final concentrations of 100 nM and 1 μM, respectively, and the mixture was reacted for 30 minutes. The change in fluorescence intensity of BODIPY® FL (excitation wavelength: 485 nm, fluorescence wavelength: 520 nm) between immediately after the start of reaction and after 30 minutes from the start of reaction was standardized, and then, the compound concentration at which 50% inhibition was achieved was calculated as IC50 (nM) when the signal value for only DMSO was defined as 0% inhibition and the signal value for no addition of GppNHp was defined as 100% inhibition.

[2] = target: T2, G12C K-Ras4B (1-169) (Homo sapiens, UniProt P01116, G12C); assay: Binding to KRAS G12C mutant, compound binding rate by LC-MS; conditions: final compound concentration 2 μM, 1 μM protein, 2 hours at 25° C.
T2 construct: G12C K-Ras4B (1-169) protein, which was a KRAS G12C mutant; His tag (N, cleaved yes); made in house; host or cells: E. coli BL21 (DE3)
Text: as §1, with “K-Ras4B (1-169)” for “SOS1”, “NP_004976” for “NP_005624”, “K-Ras4B (1-169)” for “SOS1 (564-1049)”, “fraction, which was further purified by anion-exchange chromatography” for “fraction”, “protein. G12C K-Ras4B (1-169) protein, which was a KRAS G12C mutant, was obtained in the same way as in the K-Ras4B(1-169) protein except that glycine at position 12 of the amino acid sequence represented by GenPept ID NP_004976 was mutated to cysteine.” for “protein.”
The K-Ras4B (1-169) protein and the G12C K-Ras4B (1-169) protein were mixed and diluted with a buffer solution (1×TBS and 0.1 mM TCEP) to prepare a protein solution containing 1 μM each of the proteins. Each test compound was dissolved at 10 mM in DMSO and further diluted 10-fold with DMSO to make a 1 mM solution. Then, the solution was diluted 5-fold with DMSO to make a 200 μM solution. The 200 μM solution was further diluted 5-fold to make a […] solution. 1 μL of the 40 μM test compound was added to 19 μL of the 1 μM protein solution such that the final compound concentration was 2 μM. The mixture was stored for 2 hours in an incubator of 25° C., and the reaction was terminated by the addition of 80 μL of a 1×TBS solution containing 0.2% formic acid, followed by LC-MS measurement.
The LC-MS measurement was performed by using Xevo G2-S Q-Tof manufactured by Waters Corp., performing reverse-phase chromatography with a desalting column, and obtaining mass spectra of positive ions by electrospray. For the mass spectra, spectra of polyvalent ions were collectively converted to molecular weights by the MaxEnt technique using OpenLynx software, and then, a compound binding rate was obtained from the ratio of […].
The binding rates of test compounds having a final compound concentration of 2 μM for G12C K-Ras4B (1-169) are shown in the table below. The binding rate for G12C K-Ras4B (1-169) is rated “A” for 80% or more, “B” for 60% or more and less than 80%, “C” for 40% or more and less than 60%, “D” for 20% or more and less than 40%, and “E” for less than 20%.

Structure (SMILES) | IC50 [1] [nM] | binding rate for G12C K-Ras4B (1-169) [2]
C=CC(=O)N1CC(NC(=O)c2ccc(CNc3cc(C(C)(C)C)c(Cl)cc3O)cc2Cl)C1 [Example 22, N-(1-Acryloylazetidin-3-yl)-4-(((5-(tert-butyl)-4-chloro-2-hydroxyphenyl)amino)methyl)-2-chlorobenzamide] | 2380 | D (20% or more and less than 40%)
C=CC(=O)N1CC(NC(=O)c2ccc(CNc3ccc(Cl)c(C(C)(C)C)c3)o2)C1 [Reference Example2, N-(1-Acryloylazetidin-3-yl)-5-(((3-(tert-butyl)-4-chlorophenyl)amino)methyl)furan-2-carboxamide, reference compound] | > 10000 | E (less than 20%)
C=CC(=O)N1CC(NC(=O)c2ccc(CNc3cc(C4CCC4)c(Cl)cc3O)o2)C1 [Example 53, N-(1-Acryloylazetidin-3-yl)-5-(((4-chloro-5-cyclobutyl-2-hydroxyphenyl)amino)methyl)furan-2-carboxamide] | 5970 | E (less than 20%)
C=CC(=O)N1CC(NC(=O)c2cnc(CNc3nc([Si](C)(C)C)c(Cl)cc3O)n2C)C1 [Example 84, N-(1-Acryloylazetidin-3-yl)-2-(((5-chloro-3-hydroxy-6-(trimethylsilyl)pyridin-2-yl)amino)methyl)-1-methyl-1H-imidazole-5-carboxamide] | 63 | A (80% or more)
C=CC(=O)N1CC(NC(=O)c2ccc(CNc3cc(C4CC4)c(Cl)cc3O)o2)C1 [Example 52, N-(1-Acryloylazetidin-3-yl)-5-(((4-chloro-5-cyclopropyl-2-hydroxyphenyl)amino)methyl)furan-2-carboxamide] | 2090 | D (20% or more and less than 40%)
C=CC(=O)N1CC(NC(=O)c2ccc(CNc3cc(C(=C)C)c(Cl)cc3O)o2)C1 [Example 47, N-(1-Acryloylazetidin-3-yl)-5-(((4-chloro-2-hydroxy-5-(prop-1-en-2-yl)phenyl)amino)methyl)furan-2-carboxamide] | 4740 | D (20% or more and less than 40%)
C=CC(=O)N1CC(NC(=O)c2cnc(CNc3cc([Si](C)(C)C)c(Cl)cc3O)n2C)C1 [Example 62, N-(1-Acryloylazetidin-3-yl)-2-(((4-chloro-2-hydroxy-5-(trimethylsilyl)phenyl)amino)methyl)-1-methyl-1H-imidazole-5-carboxamide] | 11 | A (80% or more)
C=CC(=O)N1CC(NC(=O)c2ccc(CNc3cc(C(C)(C)C)c(Cl)cc3OC)o2)C1 [Reference Example1, N-(1-Acryloylazetidin-3-yl)-5-(((5-(tert-butyl)-4-chloro-2-methoxyphenyl)amino)methyl)furan-2-carboxamide, reference compound] | > 10000 | E (less than 20%)

Now from value to compound:

IC50 [1] [nM] | binding rate for G12C K-Ras4B (1-169) [2] | Structure (SMILES)
221 | C (40% or more and less than 60%) | C=CC(=O)N1CC(NC(=O)c2cnc(CNc3cc4c(cc3O)CCC4(C)C)n2C)C1 [Example 71, N-(1-Acryloylazetidin-3-yl)-2-(((6-hydroxy-3,3-dimethyl-2,3-dihydro-1H-inden-5-yl)amino)methyl)-1-methyl-1H-imidazole-5-carboxamide]
15 | A (80% or more) | C=CC(=O)N1CC(NC(=O)c2cnc(CNc3cc(C(C)(C)C)c(Cl)cc3O)n2CC)C1 [Example 36, N-(1-Acryloylazetidin-3-yl)-2-(((5-(tert-butyl)-4-chloro-2-hydroxyphenyl)amino)methyl)-1-ethyl-1H-imidazole-5-carboxamide]
1030 | C (40% or more and less than 60%) | C=CC(=O)N1CC(NC(=O)c2ccc(CNc3cc(C(C)(C)C)c(C#N)cc3O)o2)C1 [Example 67, N-(1-Acryloylazetidin-3-yl)-5-(((5-(tert-butyl)-4-cyano-2-hydroxyphenyl)amino)methyl)furan-2-carboxamide]
522 | D (20% or more and less than 40%) | C=CC(=O)N1CC(NC(=O)c2cnc(CNc3cc(C(=C)C(F)(F)F)c(Cl)cc3O)n2C)C1 [Example 57, N-(1-Acryloylazetidin-3-yl)-2-(((4-chloro-2-hydroxy-5-(3,3,3-trifluoroprop-1-en-2-yl)phenyl)amino)methyl)-1-methyl-1H-imidazole-5-carboxamide]
123 | B (60% or more and less than 80%) | C=CC(=O)N1CC(NC(=O)c2cnc(CNc3cc(C(C)(C)C)c(Cl)cc3O)o2)C1 [Example 11, N-(1-Acryloylazetidin-3-yl)-2-(((5-(tert-butyl)-4-chloro-2-hydroxyphenyl)amino)methyl)oxazole-5-carboxamide]
467 | C (40% or more and less than 60%) | C=CC(=O)N1CC(NC(=O)c2sc(Cc3cc(C(C)(C)C)c(Cl)cc3O)nc2C)C1 [Example 95, N-(1-Acryloylazetidin-3-yl)-2-(5-(tert-butyl)-4-chloro-2-hydroxybenzyl)-4-methylthiazole-5-carboxamide]
599 | E (less than 20%) | C=CC(=O)N1CC(NC(=O)c2cnc(CNc3cc(CC(F)(F)F)c(Cl)cc3O)n2C)C1 [Example 56, N-(1-Acryloylazetidin-3-yl)-2-(((4-chloro-2-hydroxy-5-(2,2,2-trifluoroethyl)phenyl)amino)methyl)-1-methyl-1H-imidazole-5-carboxamide]
16 | A (80% or more) | C=CC(=O)N1CC(NC(=O)c2c(I)nc(CNc3cc(C(C)(C)C)c(Cl)cc3O)n2C)C1 [Example 27, N-(1-Acryloylazetidin-3-yl)-2-(((5-(tert-butyl)-4-chloro-2-hydroxyphenyl)amino)methyl)-4-iodo-1-methyl-1H-imidazole-5-carboxamide]

Source: US12479834B2, “Phenol compound or salt thereof” (TAIHO PHARMACEUTICAL CO., LTD., priority 2019, dated 2025)
